According to patent publication US20230085307A1, “PYRIDAZINONE COMPOUND AND HERBICIDE” (NISSAN CHEMICAL CORPORATION, priority 2019, published 2023):

Experiments:
[1] = test system: windgrass; assay: Test Example 5: herbicidal effect by foliage application, plastic box (Table 20, symbol L); assay type: in vivo, windgrass (Apera spica-venti); details: foliage application, three weeks after application
Method in brief: (§1)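 Foliar spray test: emulsion formulation diluted in water to a set application rate, sprayed onto 14-day-old plants raised in diluvial soil at 25° C to 30° C under glass. Both herbicidal effect and crop effect rated visually three weeks later.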

[2] = test system: velvetleaf; assay: Test Example 4: herbicidal effect by soil treatment (Table 19, symbol M); assay type: in vivo, velvetleaf (Abutilon theophrasti)
Method in brief: (§2)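 Herbicidal effect was rated 3 weeks after treatment, using the scoring criteria of an earlier test. The compound, formulated as an emulsion and diluted in water to a set herbicide amount, had been sprayed uniformly on soil over freshly sown seeds. Growth took place in a greenhouse at 25° C. to 30° C.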

[3] = test system: Japanese bulrush; assay: Test Example 1: herbicidal activity, application before weed generation under submerged conditions (Table 16, symbol B); assay type: in vivo, Japanese bulrush (Schoenoplectus juncoides)
Method in brief: (§3)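 Emulsion formulation, water-diluted to set dose, was put onto the flooded surface (4 cm depth, alluvial soil) the same day weeds were sown and 2.5-leaf rice transplanted. After 3 weeks at 25-30 °C under glass, each species was rated 0 (≤5% kill) to 5 (≥90% kill).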

[4] = test system: barnyard grass; assay: Test Example 5: herbicidal effect by foliage application, plastic box (Table 20, symbol H); assay type: in vivo, barnyard grass (Echinochloa crus-galli); details: foliage application, three weeks after application
Method in brief: as §1

[5] = test system: velvetleaf; assay: Test Example 5: herbicidal effect by foliage application, plastic box (Table 20, symbol M); assay type: in vivo, velvetleaf (Abutilon theophrasti); details: foliage application, three weeks after application
Method in brief: as §1

[6] = test system: chickweed; assay: Test Example 5: herbicidal effect by foliage application, plastic box (Table 20, symbol P); assay type: in vivo, common chickweed (Stellaria media); details: foliage application, three weeks after application
Method in brief: as §1

[7] = test system: late watergrass; assay: Test Example 1: herbicidal activity, application before weed generation under submerged conditions (Table 16, symbol A); assay type: in vivo, late watergrass (Echinochloa oryzicola)
Method in brief: as §3

[8] = test system: southern crabgrass; assay: Test Example 5: herbicidal effect by foliage application, plastic box (Table 20, symbol F); assay type: in vivo, southern crabgrass (Digitaria ciliaris); details: foliage application, three weeks after application
Method in brief: as §1

[9] = test system: wild oat; assay: Test Example 4: herbicidal effect by soil treatment (Table 19, symbol I); assay type: in vivo, wild oat (Avena fatua)
Method in brief: as §2

[10] = test system: wild oat; assay: Test Example 5: herbicidal effect by foliage application, plastic box (Table 20, symbol I); assay type: in vivo, wild oat (Avena fatua); details: foliage application, three weeks after application
Method in brief: as §1

[11] = test system: oval-leafed pondweed; assay: Test Example 2: herbicidal activity, application during weed generation under submerged conditions (Table 17, symbol C); assay type: in vivo, oval-leafed pondweed (Monochoria vaginalis); details: application during weed generation, submerged conditions
Method in brief: (§4)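 In this pot test, flooded alluvial soil (water depth 4 cm) holds all three species sown as a mixture. Once seedlings have one to two leaves, the compound's emulsion, thinned with water to the intended dose, is poured on the water; grading follows after three weeks on the earlier criteria.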

[12] = test system: green foxtail; assay: Test Example 5: herbicidal effect by foliage application, plastic box (Table 20, symbol G); assay type: in vivo, green foxtail (Setaria viridis); details: foliage application, three weeks after application
Method in brief: as §1

[13] = test system: lambsquarters; assay: Test Example 4: herbicidal effect by soil treatment (Table 19, symbol O); assay type: in vivo, lambsquarters (Chenopodium album)
Method in brief: as §2

[14] = test system: redroot pigweed; assay: Test Example 4: herbicidal effect by soil treatment (Table 19, symbol N); assay type: in vivo, redroot pigweed (Amaranthus retroflexus)
Method in brief: as §2

[15] = test system: blackgrass; assay: Test Example 5: herbicidal effect by foliage application, plastic box (Table 20, symbol J); assay type: in vivo, blackgrass (Alopecurus myosuroides); details: foliage application, three weeks after application
Method in brief: as §1

[16] = test system: Italian ryegrass; assay: Test Example 5: herbicidal effect by foliage application, plastic box (Table 20, symbol K); assay type: in vivo, Italian ryegrass (Lolium multiflorum); details: foliage application, three weeks after application
Method in brief: as §1

[17] = test system: blackgrass; assay: Test Example 4: herbicidal effect by soil treatment (Table 19, symbol J); assay type: in vivo, blackgrass (Alopecurus myosuroides)
Method in brief: as §2

[18] = test system: persian speedwell; assay: Test Example 4: herbicidal effect by soil treatment (Table 19, symbol R); assay type: in vivo, Persian speedwell (Veronica persica)
Method in brief: as §2

[19] = test system: Italian ryegrass; assay: Test Example 4: herbicidal effect by soil treatment (Table 19, symbol K); assay type: in vivo, Italian ryegrass (Lolium multiflorum)
Method in brief: as §2

[20] = test system: Japanese bulrush; assay: Test Example 2: herbicidal activity, application during weed generation under submerged conditions (Table 17, symbol B); assay type: in vivo, Japanese bulrush (Schoenoplectus juncoides); details: application during weed generation, submerged conditions
Method in brief: as §4

[21] = amount of applied herbicide 296 g/ha
[22] = amount of applied herbicide 320 g/ha

CCCC(=O)Oc1c(C)nn(C)c(=O)c1-c1c(-c2ccccc2OC)sc2cc(OC)ccc12 [Compound No. 3-066, 5-(6-methoxy-2-(2-methoxyphenyl)benzo[b]thiophen-3-yl)-1,3-dimethyl-6-oxo-1,6-dihydropyridazin-4-yl=(n-butyrate)]
L: windgrass, herbicidal effect grade ([1]; 296 g/ha): 5 (Herbicidal rate of 90% or more (almost completely withered)) | M: velvetleaf, herbicidal effect grade [2, 21]: 0 (Herbicidal rate of 5% or less (almost no effect)) | Herbicidal effect, B: Japanese bulrush [3, 21]: 5 (Herbicidal rate of 90% or more (almost completely withered)) | H: barnyard grass, herbicidal effect grade ([4]; 296 g/ha): 4 (Herbicidal rate of 70% or more and less than 90%) | M: velvetleaf, herbicidal effect grade ([5]; 296 g/ha): 4 (Herbicidal rate of 70% or more and less than 90%) | P: chickweed, herbicidal effect grade ([6]; 296 g/ha): 5 (Herbicidal rate of 90% or more (almost completely withered)) | Herbicidal effect, A: late watergrass [7, 21]: 5 (Herbicidal rate of 90% or more (almost completely withered)) | F: southern crabgrass, herbicidal effect grade ([8]; 296 g/ha): 4 (Herbicidal rate of 70% or more and less than 90%) | I: wild oat, herbicidal effect grade [9, 21]: 2 (Herbicidal rate of 20% or more and less than 40%) | I: wild oat, herbicidal effect grade ([10]; 296 g/ha): 3 (Herbicidal rate of 40% or more and less than 70%) | herbicidal effect rating, C: oval-leafed pondweed ([11]; AAH 296 g/ha): 5 (Herbicidal rate of 90% or more (almost completely withered)) | G: green foxtail, herbicidal effect grade ([12]; 296 g/ha): 4 (Herbicidal rate of 70% or more and less than 90%) | O: lambsquarters, herbicidal effect grade [13, 21]: 0 (Herbicidal rate of 5% or less (almost no effect)) | N: redroot pigweed, herbicidal effect grade [14, 21]: 0 (Herbicidal rate of 5% or less (almost no effect)) | J: blackgrass, herbicidal effect grade ([15]; 296 g/ha): 4 (Herbicidal rate of 70% or more and less than 90%) | K: Italian ryegrass, herbicidal effect grade ([16]; 296 g/ha): 4 (Herbicidal rate of 70% or more and less than 90%) | J: blackgrass, herbicidal effect grade [17, 21]: 3 (Herbicidal rate of 40% or more and less than 70%) | R: persian speedwell, herbicidal effect grade [18, 21]: 3 (Herbicidal rate of 40% or more and less than 70%) | K: Italian ryegrass, herbicidal effect grade [19, 21]: 4 (Herbicidal rate of 70% or more and less than 90%) | herbicidal effect rating, B: Japanese bulrush ([20]; AAH 296 g/ha): 4 (Herbicidal rate of 70% or more and less than 90%)

CCCC(=O)Oc1c(C)nn(C)c(=O)c1-c1c(-c2ccccc2)sc2cc(OC)ccc12 [3-062]
L: windgrass, herbicidal effect grade ([1]; 320 g/ha): 0 (Herbicidal rate of 5% or less (almost no effect)) | M: velvetleaf, herbicidal effect grade [2, 22]: 0 (Herbicidal rate of 5% or less (almost no effect)) | Herbicidal effect, B: Japanese bulrush [3, 22]: 4 (Herbicidal rate of 70% or more and less than 90%) | H: barnyard grass, herbicidal effect grade ([4]; 320 g/ha): 0 (Herbicidal rate of 5% or less (almost no effect)) | M: velvetleaf, herbicidal effect grade ([5]; 320 g/ha): 3 (Herbicidal rate of 40% or more and less than 70%) | P: chickweed, herbicidal effect grade ([6]; 320 g/ha): 5 (Herbicidal rate of 90% or more (almost completely withered)) | Herbicidal effect, A: late watergrass [7, 22]: 3 (Herbicidal rate of 40% or more and less than 70%) | F: southern crabgrass, herbicidal effect grade ([8]; 320 g/ha): 0 (Herbicidal rate of 5% or less (almost no effect)) | I: wild oat, herbicidal effect grade [9, 22]: 0 (Herbicidal rate of 5% or less (almost no effect)) | I: wild oat, herbicidal effect grade ([10]; 320 g/ha): 2 (Herbicidal rate of 20% or more and less than 40%) | herbicidal effect rating, C: oval-leafed pondweed ([11]; AAH 320 g/ha): 3 (Herbicidal rate of 40% or more and less than 70%) | G: green foxtail, herbicidal effect grade ([12]; 320 g/ha): 0 (Herbicidal rate of 5% or less (almost no effect)) | O: lambsquarters, herbicidal effect grade [13, 22]: 0 (Herbicidal rate of 5% or less (almost no effect)) | N: redroot pigweed, herbicidal effect grade [14, 22]: 0 (Herbicidal rate of 5% or less (almost no effect)) | J: blackgrass, herbicidal effect grade ([15]; 320 g/ha): 0 (Herbicidal rate of 5% or less (almost no effect)) | K: Italian ryegrass, herbicidal effect grade ([16]; 320 g/ha): 2 (Herbicidal rate of 20% or more and less than 40%) | J: blackgrass, herbicidal effect grade [17, 22]: 0 (Herbicidal rate of 5% or less (almost no effect)) | R: persian speedwell, herbicidal effect grade [18, 22]: 4 (Herbicidal rate of 70% or more and less than 90%) | K: Italian ryegrass, herbicidal effect grade [19, 22]: 0 (Herbicidal rate of 5% or less (almost no effect)) | herbicidal effect rating, B: Japanese bulrush ([20]; AAH 320 g/ha): 3 (Herbicidal rate of 40% or more and less than 70%)
